We go through four compounds from patent US20230233569A1 (Revolution Medicines, Inc., priority 2020, published 2023).

One assay deals with KRAS G13D (Homo sapiens, UniProt P01116+P62937, G13D). Kind of assay: Disruption of BRAF RBD interaction with Ras (FRET / MOA assay, with Cyclophilin A). It is filed as biochemical. As to conditions: KRAS G13D; read-out: KRAS G13D FRET data IC50. Put shortly: (§1)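 TR-FRET readout: a drop in ratio relative to DMSO wells marks disruption of the K-Ras:BRAF RBD complex via compound-induced K-Ras–Cyclophilin A ternary complex. Dosing used ten 3-fold steps from 30 μM final, 3 h at 25 °C, then Eu-anti-His 10 nM plus APC-anti-GST 50 nM for another 1.5 h. Values are IC50s.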

The next assay has as its target NRAS G12C (Homo sapiens, UniProt P01111+P62937, G12C). The description is as above. The conditions noted are these: NRAS G12C; read-out: NRAS G12C FRET data IC50. It counts as biochemical.
For a further assay, the target named is KRAS G12D (Homo sapiens, UniProt P01116+P62937, G12D). The description is as above. It is filed as biochemical. As to conditions: read-out: KRAS G12D FRET data, IC50. Put shortly:
as §1

A further assay addresses KRAS G12S (Homo sapiens, UniProt P01116+P62937, G12S). The assay is described as above. It counts as biochemical. The conditions noted are these: read-out: KRAS G12S FRET data, IC50. A digest of the protocol:
as §1

Another assay deals with KRAS G13C (Homo sapiens, UniProt P01116+P62937, G13C). The description is as above. It counts as biochemical. The conditions noted are these: read-out: KRAS G13C FRET data, IC50. A digest of the protocol: as §1
In another assay the target is KRAS G12V (Homo sapiens, UniProt P01116+P62937, G12V). The description is as above. It is filed as biochemical. As to conditions: KRAS G12V; read-out: KRAS G12V FRET data IC50. A digest of the protocol:
as §1

The target in another assay is KRAS G12C (Homo sapiens, UniProt P01116+P62937, G12C). The description is as above. It counts as biochemical. The conditions noted are these: read-out: KRAS G12C FRET data, IC50. A digest of the protocol:
as §1

For the next assay, the target named is KRAS WT (Homo sapiens, UniProt P01116+P62937). The description is as above. It is filed as biochemical. As to conditions: KRAS WT; read-out: KRAS WT FRET data IC50. A digest of the protocol:
as §1

The next assay concerns the target KRAS Q61H (Homo sapiens, UniProt P01116+P62937, Q61H). Described as above. It is filed as biochemical. The conditions noted are these: KRAS Q61H; read-out: KRAS Q61H FRET data IC50. Put shortly: (§2)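 IC50 reflects compound-driven Ras:Cyclophilin A ternary complex displacing BRAF RBD, read as lowered TR-FRET ratio relative to DMSO after Eu anti-His (10 nM) and APC anti-GST (50 nM) detection for 1.5 h. Prior incubation 3 h, 25° C, with 12.5 nM GMPPNP-loaded Ras, 50 nM BRAF RBD, 25 μM Cyclophilin A; top compound 30 μM.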

For another assay, the target named is NRAS WT (Homo sapiens, UniProt P01111+P62937). Described as above. It counts as biochemical. The conditions noted are these: NRAS WT; read-out: NRAS WT FRET data IC50. A digest of the protocol: as §2
A further assay has as its target NRAS Q61K (Homo sapiens, UniProt P01111+P62937, Q61K). The assay is described as above. It counts as biochemical. The conditions noted are these: NRAS Q61K; read-out: NRAS Q61K FRET data IC50. A digest of the protocol:
as §2

The target in another assay is NRAS Q61R (Homo sapiens, UniProt P01111+P62937, Q61R). The assay is described as above. The conditions noted are these: NRAS Q61R; read-out: NRAS Q61R FRET data IC50. It is filed as biochemical. A digest of the protocol:
as §2

The next assay deals with NCI-H358 (K-Ras G12C). The assay can be described thus: CellTiter-Glo cell viability assay, 5-day treatment. It is filed as cell-based. As to conditions: Homo sapiens, NCI-H358, 120 h, 5-day treatment; read-out: H358 Cell Viability assay data (K-Ras G12C, IC50). A digest of the protocol: (§3)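 Compounds were dispensed directly onto seeded cells and incubated for 5 days, then plates were equilibrated to room temperature for about 30 minutes before luminescence reading. Signals were expressed as percent of the mean DMSO control and fitted with a four-parameter logistic curve.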

The test system of the next assay is Capan-1 (K-Ras G12V). The description is as above. It is filed as cell-based. The conditions noted are these: Homo sapiens, CAPAN-1, 120 h, 5-day treatment; read-out: Capan-1 Cell Viability assay data (K-Ras G12V, IC50). Put shortly:
as §3

Structures are written as SMILES.

Chain of KRAS G12S (P01116 1-169 isoform P01116-2 G12S limits assumed): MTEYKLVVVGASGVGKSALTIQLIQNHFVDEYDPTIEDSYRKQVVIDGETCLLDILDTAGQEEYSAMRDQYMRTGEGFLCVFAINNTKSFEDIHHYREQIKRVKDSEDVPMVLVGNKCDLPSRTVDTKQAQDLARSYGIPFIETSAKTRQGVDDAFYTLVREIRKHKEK
Chain of KRAS G12S (P62937 whole entry): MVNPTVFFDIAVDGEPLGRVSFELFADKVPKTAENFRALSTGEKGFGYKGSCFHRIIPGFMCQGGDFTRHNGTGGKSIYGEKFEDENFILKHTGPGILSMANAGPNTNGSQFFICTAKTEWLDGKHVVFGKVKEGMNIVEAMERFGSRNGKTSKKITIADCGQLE
Chain of NRAS G12C (P01111 whole entry G12C): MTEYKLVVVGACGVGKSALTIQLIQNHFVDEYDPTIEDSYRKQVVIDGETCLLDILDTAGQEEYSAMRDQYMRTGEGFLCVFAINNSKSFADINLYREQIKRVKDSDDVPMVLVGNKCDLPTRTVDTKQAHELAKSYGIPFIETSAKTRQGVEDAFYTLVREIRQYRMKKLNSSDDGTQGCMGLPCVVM
Chain of NRAS G12C (P62937 whole entry): as the sequence (P62937 whole entry) above
Chain of KRAS G12C (P01116 1-169 isoform P01116-2 G12C): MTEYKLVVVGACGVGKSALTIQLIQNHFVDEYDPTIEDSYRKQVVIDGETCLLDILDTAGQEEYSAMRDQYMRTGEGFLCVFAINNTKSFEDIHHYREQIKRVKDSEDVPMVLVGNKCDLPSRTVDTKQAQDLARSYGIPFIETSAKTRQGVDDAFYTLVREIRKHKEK
Chain of KRAS G12C (P62937 whole entry): as the sequence (P62937 whole entry) above
Chain of KRAS WT (P01116 1-169 isoform P01116-2 limits assumed): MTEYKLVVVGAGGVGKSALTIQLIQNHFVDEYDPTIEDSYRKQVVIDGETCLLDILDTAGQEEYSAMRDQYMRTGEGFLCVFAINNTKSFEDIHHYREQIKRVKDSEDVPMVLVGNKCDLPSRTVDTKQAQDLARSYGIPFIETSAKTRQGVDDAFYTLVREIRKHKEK
Chain of KRAS WT (P62937 whole entry): as the sequence (P62937 whole entry) above
Chain of KRAS Q61H (P01116 1-169 isoform P01116-2 Q61H limits assumed): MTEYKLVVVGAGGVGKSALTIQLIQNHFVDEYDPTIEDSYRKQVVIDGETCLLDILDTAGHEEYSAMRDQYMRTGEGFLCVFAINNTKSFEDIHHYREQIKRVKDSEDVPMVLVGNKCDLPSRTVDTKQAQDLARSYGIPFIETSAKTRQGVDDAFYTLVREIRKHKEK
Chain of KRAS Q61H (P62937 whole entry): as the sequence (P62937 whole entry) above
Chain of NRAS Q61R (P01111 whole entry Q61R): as the sequence (P01111 whole entry G12C) above, with C12G, Q61R counted along it
Chain of NRAS Q61R (P62937 whole entry): as the sequence (P62937 whole entry) above
Chain of NRAS Q61K (P01111 whole entry Q61K): as the sequence (P01111 whole entry G12C) above, with C12G, Q61K counted along it
Chain of NRAS Q61K (P62937 whole entry): as the sequence (P62937 whole entry) above
Chain of KRAS G13D (P01116 1-169 isoform P01116-2 G13D limits assumed): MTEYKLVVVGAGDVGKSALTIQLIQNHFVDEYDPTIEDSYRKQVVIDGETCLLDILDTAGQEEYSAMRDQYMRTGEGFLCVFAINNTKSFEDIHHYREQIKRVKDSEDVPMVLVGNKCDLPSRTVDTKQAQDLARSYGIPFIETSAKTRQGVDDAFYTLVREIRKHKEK
Chain of KRAS G13D (P62937 whole entry): as the sequence (P62937 whole entry) above
Chain of KRAS G12V (P01116 1-169 isoform P01116-2 G12V limits assumed): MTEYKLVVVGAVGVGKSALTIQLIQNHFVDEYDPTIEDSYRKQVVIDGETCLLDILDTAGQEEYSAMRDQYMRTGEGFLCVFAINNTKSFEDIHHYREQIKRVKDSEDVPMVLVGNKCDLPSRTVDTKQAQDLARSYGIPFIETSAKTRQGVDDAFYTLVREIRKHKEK
Chain of KRAS G12V (P62937 whole entry): as the sequence (P62937 whole entry) above
Chain of NRAS WT (P01111 whole entry): as the sequence (P01111 whole entry G12C) above, with C12G counted along it
Chain of NRAS WT (P62937 whole entry): as the sequence (P62937 whole entry) above
Chain of KRAS G13C (P01116 1-169 isoform P01116-2 G13C): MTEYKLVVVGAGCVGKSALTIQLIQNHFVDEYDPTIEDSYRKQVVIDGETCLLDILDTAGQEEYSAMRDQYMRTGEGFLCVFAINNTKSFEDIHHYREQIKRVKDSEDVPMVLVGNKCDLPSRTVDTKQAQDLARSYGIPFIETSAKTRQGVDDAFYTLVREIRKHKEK
Chain of KRAS G13C (P62937 whole entry): as the sequence (P62937 whole entry) above
Chain of KRAS G12D (P01116 1-169 isoform P01116-2 G12D limits assumed): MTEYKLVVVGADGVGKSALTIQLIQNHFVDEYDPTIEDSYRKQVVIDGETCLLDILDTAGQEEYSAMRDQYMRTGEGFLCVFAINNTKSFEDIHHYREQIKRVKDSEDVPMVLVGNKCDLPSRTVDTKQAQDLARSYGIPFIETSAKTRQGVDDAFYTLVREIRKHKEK
Chain of KRAS G12D (P62937 whole entry): as the sequence (P62937 whole entry) above

Regarding `CCn1c(-c2cccnc2[C@H](C)OC)c2c3cc(ccc31)-c1csc(n1)C[C@H](NC(=O)[C@H](C(C)C)N(C)C(=O)N1C3CC1CS(=O)(=O)C3)C(=O)N1CCC[C@H](N1)C(=O)OCC(C)(C)C2` [Example A496], the IC50 on KRAS G13D lay in the range of 1000 to 10000 nM; on NRAS G12C it was 100 to 1000 nM; at KRAS G12D, 1000 to 10000 nM; at KRAS G12S it was 1000 to 10000 nM; on KRAS G13C, 1000 to 10000 nM; at KRAS G12V, 100 to 1000 nM. Besides, the IC50 at KRAS G12C lay within 100 to 1000 nM; at KRAS WT, 100 to 1000 nM; at KRAS Q61H it was 100 to 1000 nM; on NRAS WT, 100 to 1000 nM; at NRAS Q61K, 100 to 1000 nM; on NRAS Q61R, 1000 to 10000 nM. Further, the IC50 in the assay with NCI-H358 (K-Ras G12C) and in the assay on Capan-1 (K-Ras G12V) was 100 to 1000 nM in each case.
Turning to `CCn1c(-c2cccnc2[C@H](C)OC)c2c3cc(ccc31)-c1csc(n1)C[C@H](NC(=O)[C@H](C(C)C)N(C)C(=O)N1C[C@H]3CN(C)C[C@H]31)C(=O)N1CCC[C@H](N1)C(=O)OCC(C)(C)C2` [Example A497], the IC50 at KRAS G13D fell in the range of 1000 to 10000 nM; on NRAS G12C it was 100 to 1000 nM; at KRAS G12D it was 1000 to 10000 nM; on KRAS G12S, 1000 to 10000 nM; at KRAS G13C, 100 to 1000 nM; at KRAS G12V, 1000 to 10000 nM. For the same compound, the IC50 at KRAS G12C was in the range of 100 to 1000 nM; at KRAS WT it was 1000 to 10000 nM; on KRAS Q61H, 100 to 1000 nM; on NRAS WT, 100 to 1000 nM; on NRAS Q61K, 100 to 1000 nM; at NRAS Q61R, 1000 to 10000 nM. Moreover, the IC50 in the assay with NCI-H358 (K-Ras G12C) and in the assay on Capan-1 (K-Ras G12V) was 100 to 1000 nM each time.
On to `CCn1c(-c2cccnc2[C@H](C)OC)c2c3cc(ccc31)-c1csc(n1)C[C@H](NC(=O)[C@H](C(C)C)N(C)C(=O)N1CCCC13CCN(C)CC3)C(=O)N1CCC[C@H](N1)C(=O)OCC(C)(C)C2` [Example A498], for which the IC50 lay within 100 to 1000 nM at KRAS G13D; 10 to 100 nM on NRAS G12C; 100 to 1000 nM at KRAS G12D; 10 to 100 nM on KRAS G12S; 100 to 1000 nM at KRAS G13C; 100 to 1000 nM on KRAS G12V. Further, the IC50 at KRAS G12C lay within 10 to 100 nM; at KRAS WT, 10 to 100 nM; at KRAS Q61H, 10 to 100 nM; at NRAS WT, 10 to 100 nM; on NRAS Q61K, 100 to 1000 nM; at NRAS Q61R it was 100 to 1000 nM. For the same compound, the IC50 is 10 to 100 nM in the assay with NCI-H358 (K-Ras G12C) and 100 to 1000 nM in the assay with Capan-1 (K-Ras G12V).
`CCn1c(-c2cccnc2[C@H](C)OC)c2c3cc(ccc31)-c1csc(n1)C[C@H](NC(=O)[C@H](C(C)C)N(C)C(=O)N1CC3(CN(C)CCO3)C1)C(=O)N1CCC[C@H](N1)C(=O)OCC(C)(C)C2` [Example A499]: the IC50 at KRAS G13D lay within 1000 to 10000 nM; on NRAS G12C, 100 to 1000 nM; on KRAS G12D, 1000 to 10000 nM; at KRAS G12S it was 1000 to 10000 nM; on KRAS G13C it was 1000 to 10000 nM; on KRAS G12V it was 1000 to 10000 nM. Moreover, the IC50 is 100 to 1000 nM at KRAS G12C; 1000 to 10000 nM at KRAS WT; 100 to 1000 nM on KRAS Q61H; 1000 to 10000 nM at NRAS WT; 100 to 1000 nM at NRAS Q61K; 100 to 1000 nM on NRAS Q61R. The IC50 in the assay on NCI-H358 (K-Ras G12C) and in the assay on Capan-1 (K-Ras G12V) was 10 to 100 nM throughout.
